Where two headings read alike, the source gives them in different places. One block for each compound: values may come before it. Where a SMILES comes first, the peptide text is derived from it.
Assay: Chlorine dioxide compatibility: ClO2 decrease in 200 ppm ClO2 test samples containing an additive (UV/Vis absorption or titration)
Type: physicochemical
Conditions: for Chlorine dioxide (ppm): 200 ppm ClO2 composition with sucralose 0.5 wt. %
[1] = Table 2, 200 ppm ClO2 test sample, single additive at listed wt. %, interpolated to 8 hours
[2] = Table 2, […], interpolated to 8 hours
[3] = FIG. 1A, 200 ppm ClO2, single sweetener at 0.5 wt. %
[4] = Table 3, 200 ppm ClO2 test sample, single additive at listed wt. %, interpolated to 8 hours
[5] = Table 3, […], interpolated to 8 hours

- ClO2 decrease @ 8 hrs [1]: 1%
Compound: CC(C)[C@@H]1CC[C@@H](C)C[C@H]1O [Comp. 1, L-menthol]

- ClO2 decrease @ 8 hrs [1]: 2%
Compound: CC12CCC(CC1=O)C2(C)C (stereo not shown) [Comp. 3, Camphor]

Compound: O=Cc1ccccc1 [compound 2, Benzaldehyde]
- ClO2 decrease @ 8 hrs [2]: 1%

- ClO2 decrease @ 8 hrs [1]: 4%
Compound: CC(C)[C@@H]1CC[C@@H](C)CC1=O [compound 4, Menthone]

- ClO2 decrease @ 8 hrs [1]: 5%
Compound: CCNC(=O)C1CC(C)CCC1C(C)C (stereo not shown) [compound 5, Ethyl Menthane Carboxamide]

- ClO2 decrease @ 8 hrs [1]: 13%
Compound: CC12CCC(CC1)C(C)(C)O2 [compound 6, Eucalyptol]

- ClO2 decrease @ 8 hrs [1]: 2%
Compound: COC(=O)[C@H](Cc1ccccc1)NC(=O)[C@@H](N)CC(=O)O [compound 7, Aspartame] (H-Asp-Phe-OMe)
- chlorine dioxide concentration versus time behaviour [3]: steep immediate declines in chlorine dioxide concentration, followed by much more gradual declines

Compound: O.O.O=C1NS(=O)(=O)c2ccccc21.[Na] [compound 9, Sodium saccharin Dihydrate]
- ClO2 decrease @ 8 hrs: 3%
- chlorine dioxide concentration versus time behaviour: steep immediate declines in chlorine dioxide concentration, followed by much more gradual declines

- ClO2 decrease @ 8 hrs [1]: 9%
- chlorine dioxide present at 8 hours (interpolation of the data at 0.88 hours and 15.35 hours): 166.5 ppm
- Chlorine dioxide (ppm) (time 0.25 hours): 183 ppm
- Chlorine dioxide (ppm) (time 0.88 hours): 168 ppm
- Chlorine dioxide (ppm) (time 15.35 hours): 165 ppm
- Chlorine dioxide (ppm) (time 22.62 hours): 165 ppm
- Chlorine dioxide (ppm) (time 70.58 hours): 163 ppm
Compound: OC[C@H]1O[C@H](O[C@]2(CCl)O[C@H](CCl)[C@@H](O)[C@@H]2O)[C@H](O)[C@@H](O)[C@H]1Cl [compound 10, Sucralose]
- chlorine dioxide concentration versus time behaviour [3]: steep immediate declines in chlorine dioxide concentration, followed by much more gradual declines

- ClO2 decrease @ 8 hrs [1]: 8%
Compound: OCc1ccccc1 [compound 12, Benzyl Alcohol]

Compound: CC(O)CO (stereo not shown) [compound 13, Propylene Glycol]
- ClO2 decrease @ 8 hrs [2]: 1%

- ClO2 decrease @ 8 hrs [1]: 1%
Compound: OCC(O)CO [compound 15, Glycerol]

Compound: CCOC(C)=O [compound 16, Ethyl Acetate]
- ClO2 decrease @ 8 hrs: 3%

- ClO2 decrease @ 8 hrs [1]: 4%
Compound: CCO [compound 17, Ethanol]

Compound: CC(C)=O [compound 19, Acetone]
- ClO2 decrease @ 8 hrs: 0.04%

Compound: N[C@@H](CCC(=O)O)C(=O)O [compound 21, l-Glutamic Acid]
- ClO2 decrease @ 8 hrs [2]: 1%

- ClO2 decrease @ 8 hrs [4]: 100%
Compound: O=C1O[C@H]([C@@H](O)CO)C(O)=C1O [compound 28, Ascorbic Acid]

Compound: C/C=C/C=C/C(=O)O [compound 29, Sorbic Acid]
- ClO2 decrease @ 8 hrs [4]: 100%

Compound: COc1ccc(C=O)cc1OC [compound 30, Methyl Vanillin]
- ClO2 decrease @ 8 hrs: 100%

Compound: CC=Cc1ccc(OC)cc1 [compound 31, Anethole]
- ClO2 decrease @ 8 hrs [5]: 100%

Compound: CC1=CC(=O)NS(=O)(=O)O1 [compound 32, Acesulfame Potassium]
- ClO2 decrease @ 8 hrs: 100%
- chlorine dioxide concentration versus time behaviour: consumed all of the chlorine dioxide within about the first hour

Compound: C/C=C/C=C/C(=O)[O-].[K+] [compound 35, Potassium Sorbate]
- ClO2 decrease @ 8 hrs: 99%

Compound: NCCO [compound 38, Monoethanolamine]
- ClO2 decrease @ 8 hrs: 92%

Compound: t-Cinnamaldehyde [compound 26]
- ClO2 decrease @ 8 hrs [5]: 37%

Reference: US9101562B2, “Additives for chlorine dioxide-containing compositions” (BASF CORPORATION, priority 2010, dated 2015)
